Laboratory results as given in US20240013855A1, “METHOD OF SEARCHING FOR SPECIFIC-BINDING FUNCTIONAL SUBSTANCES, SPECIFIC-BINDING FUNCTIONAL SUBSTANCE SEARCH SYSTEM, SPECIFIC-BINDING FUNCTIONAL SUBSTANCE SEARCH METHOD, AND PROGRAM” (SHINSHU UNIVERSITY, priority 2020, published 2024).

Key:
kinase DYRK1B = kinase DYRK1B (Homo sapiens, UniProt Q9Y463); assay: Kinase DYRK1B inhibitory activity with and without heating/cooling; type: biochemical; details: for inhibitory activity without heating/cooling: complete protein not heated/cooled; for inhibitory effect specific to the folding intermediate undergoing heating/cooling: with versus without heating/cooling
kinase DYRK1B, sequence (Q9Y463 whole entry): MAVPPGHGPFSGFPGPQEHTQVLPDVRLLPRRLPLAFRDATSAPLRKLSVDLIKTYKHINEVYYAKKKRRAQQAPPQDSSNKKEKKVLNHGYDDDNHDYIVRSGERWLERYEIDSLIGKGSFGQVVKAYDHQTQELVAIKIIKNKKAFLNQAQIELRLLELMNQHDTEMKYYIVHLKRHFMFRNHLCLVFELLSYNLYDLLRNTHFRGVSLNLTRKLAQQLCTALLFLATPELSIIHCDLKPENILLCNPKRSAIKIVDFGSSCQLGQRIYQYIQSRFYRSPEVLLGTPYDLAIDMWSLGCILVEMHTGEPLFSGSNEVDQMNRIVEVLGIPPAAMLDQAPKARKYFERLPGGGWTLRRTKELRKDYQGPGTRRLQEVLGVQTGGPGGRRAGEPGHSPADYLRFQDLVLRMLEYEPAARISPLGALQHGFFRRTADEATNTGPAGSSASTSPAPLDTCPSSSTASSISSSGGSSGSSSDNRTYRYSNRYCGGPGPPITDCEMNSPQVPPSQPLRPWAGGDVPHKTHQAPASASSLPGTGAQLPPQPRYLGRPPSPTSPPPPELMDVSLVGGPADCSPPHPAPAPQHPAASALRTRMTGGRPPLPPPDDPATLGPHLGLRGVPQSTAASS
Protocol: Consequently, the setpoint heating temperature for the temperature jump test was set to 62.0° C. […] Consequently, the setpoint heating temperature for the temperature jump test was set to 52.0° C.

Kinase DYRK1A = Kinase DYRK1A (Homo sapiens, UniProt Q13627); assay: Kinase DYRK1A enzymatic activity (Kinase Glo, remaining ATP) with or without heating/quick cooling (temperature jump); type: biochemical; details: for inhibitory effect on the complete protein that was not heated/cooled: no heating/cooling (conventional evaluation); for inhibitory effect specific to the folding intermediate undergoing heating/cooling: with versus without heating/cooling (temperature jump)
Protocol: Lastly, in the embodiment, the effect of the presence of the candidate functional substance in influencing the function of the protein is determined (step C). For example, what is determined is, such as, inhibitory effect when searching for an inhibitor, accelerative effect when searching for an accelerator, coagulative effect when searching for a coagulant, stabilizing effect when searching for a stabilizer, or activating effect when searching for an activator, as a functional substance. […] As an example, in this process a determination can be made by using the Promega Kinase Glo assay kit, etc., to quantify the amount of ATP remaining in the tube, and thereby measuring its enzymatic activity. It should be noted that the determination of inhibitory effect is not limited to one based on use of the aforementioned kit, etc.
• Kinase DYRK1A protein mass: 25 ng • DMSO concentration: 0.3% in 25 μL • ATP/substrate peptide (DYRKtide peptide: amino-acid sequence […]) concentration: 5 μM each • Volume at enzymatic reaction: 25 μL • Volume in thermal cycler (Biometra TAdvanced Model 96SG): 15 μL • Enzymatic reaction period: 2 hrs.
• 1. The DYRK1A protein, inhibitors (solvent DMSO alone was added in the case of “Inhibitor 0 μM”), buffer (final concentrations: 5 mM MOPS pH7.2, 2.5 mM beta-glycerol-phosphate, 5 mM MgCl2, 1 mM EGTA, 0.4 mM EDTA, 0.05 mM DTT) and ultrapure water were mixed in tubes placed in a white 96-well PCR plate. [Volume: 15 μL, DYRK1A protein mass: 25 ng, inhibitor concentration: 30 μM] • 2. The plate was set in a thermal cycler and heated for 20 seconds at each heating temperature, and then cooled for 10 seconds at 3° C. [Rate of heating/rate of cooling both 8° C./sec.] • 3. Upon completion of cooling, it was removed immediately and 10 μL of ATP/substrate peptide mixture solution was added. [Volume: 15 μL→25 μL, ATP/substrate peptide concentration 5 μM] • 4. It was set in the thermal cycler again to cause enzymatic reaction for 2 hours […] at 20° C. • 5. It was picked up from the thermal cycler and 25 μL of Kinase Glo reaction solution was added, and from the resulting luminescence value, the remaining amount of ATP was measured to evaluate the enzymatic activity. [Volume: 25 μL 50 μL]

kinase SRC = kinase SRC (Homo sapiens, UniProt P12931); assay: Kinase SRC inhibitory activity with and without heating/cooling; type: biochemical; details: for inhibitory activity on SRC compared with DYRK1A: temperature jump; for inhibition of kinase SRC: with and without heating/cooling, IC80 concentration for temperature-jump inhibition of DYRK1A
kinase SRC, sequence (P12931 whole entry): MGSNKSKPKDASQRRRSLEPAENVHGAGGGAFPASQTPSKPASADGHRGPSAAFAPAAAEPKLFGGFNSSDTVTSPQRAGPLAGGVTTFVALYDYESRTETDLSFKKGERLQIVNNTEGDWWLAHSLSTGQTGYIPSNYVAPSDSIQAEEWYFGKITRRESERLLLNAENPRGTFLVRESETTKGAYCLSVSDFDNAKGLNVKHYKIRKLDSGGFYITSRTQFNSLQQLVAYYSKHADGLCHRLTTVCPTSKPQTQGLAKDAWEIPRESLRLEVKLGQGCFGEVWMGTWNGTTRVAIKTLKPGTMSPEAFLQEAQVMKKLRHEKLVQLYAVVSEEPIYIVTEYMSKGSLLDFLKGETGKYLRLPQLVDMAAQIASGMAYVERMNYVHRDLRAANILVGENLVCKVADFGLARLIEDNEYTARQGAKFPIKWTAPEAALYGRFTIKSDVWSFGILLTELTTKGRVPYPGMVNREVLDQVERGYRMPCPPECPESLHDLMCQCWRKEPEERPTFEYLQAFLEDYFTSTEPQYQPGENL
Protocol: (§1) Here, inhibitory effects on other kinases were studied.
(§2) As a result, for the kinase DYRK1A, the upper-limit temperature of 67.0° C. and lower-limit temperature of 57.5° C. were calculated as temperature conditions based on the measured data, as shown in FIG. 16. Consequently, the setpoint heating temperature for the temperature jump test was set to 62.0° C. […] Consequently, the setpoint heating temperature for the temperature jump test was set to 53.7° C. Also, for the kinase SRC, the upper-limit temperature of 59.6° C. and lower-limit temperature of 51.4° C. were calculated as temperature conditions based on the measured data, as shown in FIG. 18. Consequently, the setpoint heating temperature for the temperature jump test was set to 55.5° C. Also, for the kinase ABL, the upper-limit temperature of 55.6° C. and lower-limit temperature of 47.3° C. were calculated as temperature conditions based on the measured data, as shown in FIG. 19. Consequently, the setpoint heating temperature for the temperature jump test was set to 52.0° C.

kinase ABL = kinase ABL (Homo sapiens, UniProt P00519); assay: Kinase ABL inhibitory activity with and without heating/cooling; type: biochemical
kinase ABL, sequence (P00519 whole entry): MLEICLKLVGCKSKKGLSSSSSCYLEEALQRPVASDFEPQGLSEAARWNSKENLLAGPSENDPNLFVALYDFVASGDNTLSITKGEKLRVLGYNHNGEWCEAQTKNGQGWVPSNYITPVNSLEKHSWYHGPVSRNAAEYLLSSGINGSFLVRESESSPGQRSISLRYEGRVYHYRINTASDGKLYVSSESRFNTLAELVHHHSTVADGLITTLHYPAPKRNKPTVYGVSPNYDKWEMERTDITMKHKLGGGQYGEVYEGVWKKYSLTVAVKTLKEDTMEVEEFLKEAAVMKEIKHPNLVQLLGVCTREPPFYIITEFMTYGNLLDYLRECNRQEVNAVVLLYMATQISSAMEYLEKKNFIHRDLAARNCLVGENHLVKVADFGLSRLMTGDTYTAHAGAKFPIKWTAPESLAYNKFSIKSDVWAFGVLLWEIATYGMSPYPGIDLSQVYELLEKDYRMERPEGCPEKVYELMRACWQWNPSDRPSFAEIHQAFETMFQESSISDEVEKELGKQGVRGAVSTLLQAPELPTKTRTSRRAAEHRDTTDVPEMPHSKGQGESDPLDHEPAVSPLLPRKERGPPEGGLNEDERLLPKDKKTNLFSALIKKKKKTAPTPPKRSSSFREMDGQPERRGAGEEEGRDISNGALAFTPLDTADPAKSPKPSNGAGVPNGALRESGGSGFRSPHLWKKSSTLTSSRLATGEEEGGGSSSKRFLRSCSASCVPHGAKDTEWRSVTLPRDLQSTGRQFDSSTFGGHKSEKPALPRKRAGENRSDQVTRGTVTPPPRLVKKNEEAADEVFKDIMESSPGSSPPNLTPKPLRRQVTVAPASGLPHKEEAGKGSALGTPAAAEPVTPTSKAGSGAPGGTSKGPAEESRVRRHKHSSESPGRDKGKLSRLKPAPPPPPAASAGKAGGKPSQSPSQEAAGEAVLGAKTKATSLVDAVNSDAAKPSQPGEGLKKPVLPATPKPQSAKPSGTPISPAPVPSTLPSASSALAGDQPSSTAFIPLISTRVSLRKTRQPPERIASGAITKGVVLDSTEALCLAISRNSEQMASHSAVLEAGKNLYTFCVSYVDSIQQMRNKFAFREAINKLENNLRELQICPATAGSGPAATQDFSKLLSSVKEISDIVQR
Protocol: as §1, §2

ABL in HEK293 cells = ABL in HEK293 cells (Homo sapiens, UniProt P00519); assay: Western blotting detection of ABL in cultured cell line HEK293; details: HEK293 cultured for 4 days in the presence of compound
ABL in HEK293 cells, sequence (P00519 whole entry): as above
Protocol: Additionally, a western blotting detection using the cultured cell line HEK293 was conducted. […] Using the SDS-PAGE and western blotting methods, ABL and GAPDH were detected using antibodies specific to the two.

monoamine oxidase MAO-A = target: T1, monoamine oxidase MAO-A (Homo sapiens, UniProt P21397); assay: Small-scale screening on monoamine oxidase MAO-A with temperature jump (MAO-A-Glo Assay); type: biochemical; details: temperature jump 69.2° C; plant-derived compound library (1 to 34)
T1 sequence (P21397 1-527): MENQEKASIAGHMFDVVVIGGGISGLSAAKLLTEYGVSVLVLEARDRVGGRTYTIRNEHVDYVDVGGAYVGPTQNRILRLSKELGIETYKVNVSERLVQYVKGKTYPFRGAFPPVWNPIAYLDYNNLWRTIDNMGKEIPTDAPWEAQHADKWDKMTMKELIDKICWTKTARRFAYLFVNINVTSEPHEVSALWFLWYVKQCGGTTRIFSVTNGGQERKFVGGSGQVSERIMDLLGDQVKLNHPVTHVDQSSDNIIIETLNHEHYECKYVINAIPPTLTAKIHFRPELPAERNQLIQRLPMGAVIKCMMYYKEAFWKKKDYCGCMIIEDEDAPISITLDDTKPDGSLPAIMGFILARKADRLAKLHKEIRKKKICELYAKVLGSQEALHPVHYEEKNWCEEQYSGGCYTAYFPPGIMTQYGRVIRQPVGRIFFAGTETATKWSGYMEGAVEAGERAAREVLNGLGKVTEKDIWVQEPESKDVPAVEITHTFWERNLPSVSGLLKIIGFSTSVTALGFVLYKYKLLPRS
Protocol: Also, the monoamine oxidase MAO-A was studied as a way to set the upper-limit temperatures and lower-limit temperatures in FIG. 11 to FIG. 13. FIG. 20 is a figure showing the study results on upper-limit temperature and lower-limit temperature for the monoamine oxidase MAO-A. It should be noted that the test was conducted according to the product manual for Promega's MAO-A-Glo™ Assay Systems. It should be noted that the relative enzymatic activity was calculated based on the enzymatic activity at 40° C. being 1.0.
As a result, for the […] MAO-A, the upper-limit temperature of 76.4° C. and lower-limit temperature of 62.0° C. were calculated as temperature conditions based on the measured data, as shown in FIG. 20. Consequently, the setpoint heating temperature for the temperature jump test was set to 69.2° C. FIG. 21 is a figure showing the small-scale inhibitor screening results with respect to the monoamine oxidase MAO-A.

DYRK1A in HEK293 cells = target: T2, DYRK1A in HEK293 cells (Homo sapiens, UniProt Q13627); assay: Western blotting detection of DYRK1A in cultured cell line HEK293; type: cell-based; details: HEK293 cultured for 4 days in the presence of compound
T2 construct: endogenous in cells; host or cells: HEK293
Protocol: To be more specific, a study was conducted by western blotting using the cultured cell line HEK293.

Structure (SMILES) | inhibitory activity without heating/cooling (kinase DYRK1B) | inhibitory effect specific to the folding intermediate undergoing heating/cooling (kinase DYRK1B) | inhibitory effect on the complete protein that was not heated/cooled (Kinase DYRK1A) | inhibitory effect specific to the folding intermediate undergoing heating/cooling (Kinase DYRK1A) | inhibitory activity on SRC compared with DYRK1A (kinase SRC) | inhibition of kinase SRC (kinase SRC) | also measured
COc1ccc2c(c1)[nH]c1c(C)nccc12 [Harmine] | exhibited an inhibitory effect | did not exhibit a specific inhibitory effect | exhibited an inhibitory effect | did not exhibit a specific inhibitory effect | – | – | –
CCOc1cc(/C=C2\SC(=S)NC2=O)ccc1O [RD0392] | exhibited an inhibitory effect | did not exhibit a specific inhibitory effect | exhibited an inhibitory effect | did not exhibit a specific inhibitory effect | – | – | –
COc1ccc(/C=C2\SC(=S)NC2=O)cc1C#C[Si](C)(c1ccccc1)c1ccccc1 [compound 168] | – | – | – | – | weaker than those on DYRK1A | inhibited the kinase SRC in a temperature jump-dependent manner | –
COc1ccc(/C=C2\SC(=S)NC2=O)cc1C#C[Si](C)(C)C [FINDY] | – | – | – | – | weaker than those on DYRK1A | inhibited the kinase SRC in a temperature jump-dependent manner | inhibitory activity on ABL compared with DYRK1A (kinase ABL; temperature jump): stronger than that on DYRK1A; inhibition of kinase ABL (kinase ABL; with and without heating/cooling): strongly inhibited the kinase ABL in a temperature jump-dependent manner; ABL band in western blotting (activity to decompose/remove ABL) (ABL in HEK293 cells): became fainter
O=C(O[C@H]1Cc2ccccc2C[C@H]1OC(=O)c1cc(O)c(O)c(O)c1)c1cc(O)c(O)c(O)c1 [compound No. 2] | – | – | – | exhibited a specific inhibitory effect only with the folding intermediate | – | – | temperature jump-dependent inhibitory activity on MAO-A (monoamine oxidase MAO-A): temperature jump-dependent inhibitory activity was confirmed; DYRK1A band in western blotting (activity to decompose/remove DYRK1A) (DYRK1A in HEK293 cells): became fainter
